Experimental data published in ChEMBL document CHEMBL1201862, “PubChem BioAssay data set” (2004).
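In this assay, cells in 96-well plates receive the compound at five concentrations for 48 hours. Endpoints are linearly interpolated between the surrounding concentrations. GI50: concentration for 50% inhibition of growth.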 The source made the active and inactive calls. Cut-off read from the data, not from the text of the source: active = GI50 up to about 1.1 µM and inactive = higher.

Legend:
Test in all cases: NCI tumour cell line growth inhibition, 48 h
SNB-75 = tested on: SNB-75
U-251 = tested on: U-251
OVCAR-5 = tested on: OVCAR-5
K562 = tested on: K562
MDA-MB-435 = tested on: MDA-MB-435
RPMI-8226 = tested on: RPMI-8226
BT-549 = tested on: BT-549
MDA-MB-231 = tested on: MDA-MB-231
SK-MEL-2 = tested on: SK-MEL-2
KM12 = tested on: KM12
NCI-H460 = tested on: NCI-H460
Malme-3M = tested on: Malme-3M
SF-295 = tested on: SF-295
SK-OV-3 = tested on: SK-OV-3
OVCAR-3 = tested on: OVCAR-3
SK-MEL-5 = tested on: SK-MEL-5
HCT-15 = tested on: HCT-15
UACC-257 = tested on: UACC-257
SN12C = tested on: SN12C
786-0 = tested on: 786-0
SNB-19 = tested on: SNB-19
Hs-578T = tested on: Hs-578T
RXF 393 = tested on: RXF 393
SW-620 = tested on: SW-620
SF-539 = tested on: SF-539
LOX IMVI = tested on: LOX IMVI
ACHN = tested on: ACHN
M14 = tested on: M14
T47D = tested on: T47D
HOP-62 = tested on: HOP-62
NCI-H522 = tested on: NCI-H522
A498 = tested on: A498
SF-268 = tested on: SF-268
DU-145 = tested on: DU-145
MCF7 = tested on: MCF7
NCI/ADR-RES = tested on: NCI/ADR-RES
NCI-H23 = tested on: NCI-H23
HCC 2998 = tested on: HCC 2998
UO-31 = tested on: UO-31
OVCAR-8 = tested on: OVCAR-8
MDA-N = tested on: MDA-N
CAKI-1 = tested on: CAKI-1
SK-MEL-28 = tested on: SK-MEL-28
CCRF-CEM = tested on: CCRF-CEM
UACC-62 = tested on: UACC-62
A549 = tested on: A549
TK-10 = tested on: TK-10
HCT-116 = tested on: HCT-116
SR = tested on: SR
EKVX = tested on: EKVX
HT-29 = tested on: HT-29
PC-3 = tested on: PC-3
NCI-H226 = tested on: NCI-H226
COLO 205 = tested on: COLO 205
HOP-92 = tested on: HOP-92
HL-60 = tested on: HL-60
MOLT-4 = tested on: MOLT-4
IGROV-1 = tested on: IGROV-1
OVCAR-4 = tested on: OVCAR-4
DMS-114 = tested on: DMS-114
DMS-273 = tested on: DMS-273
SNB-78 = tested on: SNB-78
LXFL 529 = tested on: LXFL 529
KM-20L2 = tested on: KM-20L2
DLD-1 = tested on: DLD-1

`NC(CO)C(=O)NCC(=O)O` (centres undefined) was tested, and the GI50 (SNB-75) was > 100 µM (inactive), the GI50 (U-251) was > 100 µM (inactive) and the GI50 (OVCAR-5) was > 100 µM (inactive). The GI50 (K562) was > 100 µM (inactive), the GI50 (MDA-MB-435) was > 100 µM (inactive) and the GI50 (RPMI-8226) was > 100 µM (inactive). The GI50 (BT-549) was > 100 µM (inactive), the GI50 (MDA-MB-231) was > 100 µM (inactive) and the GI50 (SK-MEL-2) was > 100 µM (inactive). For the same compound, the GI50 (KM12) was > 100 µM (inactive), the GI50 (NCI-H460) was > 100 µM (inactive) and the GI50 (Malme-3M) was > 100 µM (inactive). For the same compound, the GI50 (SF-295) was > 100 µM (inactive), the GI50 (SK-OV-3) was > 100 µM (inactive) and the GI50 (OVCAR-3) was > 100 µM (inactive). For the same compound, the GI50 (SK-MEL-5) was > 100 µM (inactive), the GI50 (HCT-15) was over 100 µM and the GI50 (UACC-257) was > 100 µM (inactive). The GI50 (SN12C) was > 100 µM (inactive), the GI50 (786-0) was > 100 µM (inactive) and the GI50 (SNB-19) was > 100 µM (inactive). The GI50 (Hs-578T) was > 100 µM (inactive), the GI50 (RXF 393) was > 100 µM (inactive) and the GI50 (SW-620) was > 100 µM (inactive). The GI50 (SF-539) was > 100 µM (inactive), the GI50 (LOX IMVI) was > 100 µM (inactive) and the GI50 (ACHN) was > 100 µM (inactive). The GI50 (M14) was > 100 µM (inactive), the GI50 (T47D) was > 100 µM (inactive) and the GI50 (HOP-62) was > 100 µM (inactive). The GI50 (NCI-H522) was > 100 µM (inactive), the GI50 (A498) was > 100 µM (inactive) and the GI50 (SF-268) was > 100 µM (inactive). For the same compound, the GI50 (DU-145) was > 100 µM (inactive), the GI50 (MCF7) was > 100 µM (inactive) and the GI50 (NCI/ADR-RES) was > 100 µM (inactive). For the same compound, the GI50 (NCI-H23) was > 100 µM (inactive), the GI50 (HCC 2998) was > 100 µM (inactive) and the GI50 (UO-31) was > 100 µM (inactive). The GI50 (OVCAR-8) was > 100 µM (inactive), the GI50 (MDA-N) was > 100 µM (inactive) and the GI50 (CAKI-1) was > 100 µM (inactive). The GI50 (SK-MEL-28) was > 100 µM (inactive), the GI50 (CCRF-CEM) was > 100 µM (inactive) and the GI50 (UACC-62) was > 100 µM (inactive). For the same compound, the GI50 (A549) was > 100 µM (inactive), the GI50 (TK-10) was > 100 µM (inactive) and the GI50 (HCT-116) was > 100 µM (inactive). The GI50 (SR) was > 100 µM (inactive), the GI50 (EKVX) was > 100 µM (inactive) and the GI50 (HT-29) was > 100 µM (inactive). For the same compound, the GI50 (PC-3) was > 100 µM (inactive), the GI50 (NCI-H226) was > 100 µM (inactive) and the GI50 (COLO 205) was > 100 µM (inactive). The GI50 (HOP-92) was > 100 µM (inactive), the GI50 (HL-60) was > 100 µM (inactive) and the GI50 (MOLT-4) was > 100 µM (inactive). The GI50 (IGROV-1) was > 100 µM (inactive) and the GI50 (OVCAR-4) was > 100 µM (inactive).

With `O=C(O)CCSC(=O)Nc1cccc(F)c1` the GI50 (U-251) was > 100 µM (inactive), the GI50 (OVCAR-5) was > 100 µM (inactive) and the GI50 (K562) was > 100 µM (inactive). For the same compound, the GI50 (RPMI-8226) was > 100 µM (inactive), the GI50 (DMS-114) was 66.5 µM (inactive) and the GI50 (SK-MEL-2) was > 100 µM (inactive). The GI50 (KM12) was > 100 µM (inactive), the GI50 (NCI-H460) was > 100 µM (inactive) and the GI50 (SF-295) was > 100 µM (inactive). The GI50 (OVCAR-3) was 40.6 µM (inactive), the GI50 (DMS-273) was > 100 µM (inactive) and the GI50 (HCT-15) was over 100 µM. For the same compound, the GI50 (UACC-257) was > 100 µM (inactive), the GI50 (SN12C) was > 100 µM (inactive) and the GI50 (SNB-78) was > 100 µM (inactive). For the same compound, the GI50 (786-0) was > 100 µM (inactive), the GI50 (SNB-19) was > 100 µM (inactive) and the GI50 (SW-620) was > 100 µM (inactive). The GI50 (SF-539) was > 100 µM (inactive), the GI50 (LOX IMVI) was > 100 µM (inactive) and the GI50 (ACHN) was > 100 µM (inactive). The GI50 (M14) was 18.3 µM (inactive), the GI50 (HOP-62) was 14.3 µM (inactive) and the GI50 (A498) was > 100 µM (inactive). For the same compound, the GI50 (SF-268) was 24.3 µM (inactive), the GI50 (NCI-H23) was > 100 µM (inactive) and the GI50 (HCC 2998) was > 100 µM (inactive). The GI50 (UO-31) was > 100 µM (inactive), the GI50 (OVCAR-8) was > 100 µM (inactive) and the GI50 (LXFL 529) was > 100 µM (inactive). The GI50 (SK-MEL-28) was > 100 µM (inactive), the GI50 (CCRF-CEM) was > 100 µM (inactive) and the GI50 (UACC-62) was 0.228 µM (active). For the same compound, the GI50 (A549) was > 100 µM (inactive), the GI50 (TK-10) was > 100 µM (inactive) and the GI50 (SR) was > 100 µM (inactive). The GI50 (EKVX) was 3.55 µM (inactive), the GI50 (HT-29) was > 100 µM (inactive) and the GI50 (KM-20L2) was > 100 µM (inactive). The GI50 (NCI-H226) was > 100 µM (inactive), the GI50 (COLO 205) was > 100 µM (inactive) and the GI50 (DLD-1) was > 10 µM (inactive). For the same compound, the GI50 (HL-60) was 23.3 µM (inactive), the GI50 (MOLT-4) was > 100 µM (inactive) and the GI50 (IGROV-1) was > 10 µM (inactive).
